The target of one assay is BRD4 protein (Homo sapiens (Human), UniProt O60885). The experiment in a line: BRD4 protein degradation inducing action in cancer cells (immunofluorescence, Operetta). It counts as cell-based. Conditions: LNCaP cells, 6 hr treatment, fluorescence intensity. In outline:
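DC50 = compound concentration reducing BRD4 immunofluorescence to 50% of untreated cells, interpolated between the two flanking concentrations. Treatment: LNCaP cells, 6 hr, 10% FBS/RPMI1640, 37° C. Cells were then fixed, permeabilized, stained with anti-BRD4 and Alexa Fluor 488 or 546 secondaries, and imaged.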

For another assay, the target named is BRD4-1 (GST) (Homo sapiens (Human), UniProt O60885). The experiment in a line: Inhibitory action on binding of BRD4 protein and acetylated histone H4, Test Method 2 (TR-FRET). The following applies: Test Method 2, BRD4-1 (GST) and acetylated histone H4, TR-FRET. The protocol: The inhibitory action of the compound of the present invention on the binding of BRD4 protein and a ligand thereof (acetylated histone H4) was evaluated by the time-resolved fluorescence resonance energy transfer (TR-FRET) method using EPIgeneous™ Binding Domain Kit A (Cisbio), BRD4-1 (GST) (Reaction Biology Corp) and [Lys(Ac)5/8/12/16]-Histone H4(1-21)-GGK (Biotin) (Eurogentec). In this experiment, (+)-JQ1 known to have an inhibitory activity on the binding of BRD4 protein and acetylated histone H4 therefor was used as a positive control drug. A test compound dissolved DMSO was diluted with attached Diluent Buffer, added to a 384 well white plate, and BRD4-1 (GST) and [Lys(Ac)5/8/12/16]-Histone H4(1-21)-GGK (Biotin) were further added. Thereafter, Streptavidin-d2 conjugate and Anti-GST-Eu^3+ Cryptate Conjugate were added and the cells were incubated at room temperature for 3 hr. The binding amount of the BRD4 protein and acetylated histone H4 was measured as the fluorescence intensity (excitation: 314 nm/emission: 620 nm and excitation: 314 nm/emission: 665 nm). […] It was calculated from the straight line connecting the degradation rate at two points enclosing the 50% fluorescence intensity and the compound concentration.
(In TR-FRET formats the signal depends on donor and acceptor labels being close together.)

For another assay, the target named is BRD4 bromodomain 1 (Homo sapiens (Human), UniProt O60885). The experiment in a line: Inhibitory action on binding of BRD4 protein and ligand, Test Method 1 (TR-FRET, BRD4 bromodomain 1 TR-FRET Assay Kit). The following applies: Test Method 1, BRD4 bromodomain 1 and ligand. Here is the method: The inhibitory action of the compound of the present invention on the binding of BRD4 protein and a ligand thereof was evaluated by the time-resolved fluorescence resonance energy transfer (TR-FRET) method using BRD4 bromodomain 1 TR-FRET Assay Kit (Cayman). In this experiment, (+)-JQ1 known to have an inhibitory activity on the binding of BRD4 protein and a ligand therefor was used as a positive control drug. A test compound dissolved in DMSO was diluted with TR-FRET Assay Buffer, added to a 384 well black plate, BRD4 bromodomain 1 Europium Chelete was further added and the cells were incubated at room temperature for 15 min. Thereafter, BRD4 bromodomain 1 Ligand/APC Acceptor Mixture was added and the cells were incubated at room temperature for 1 hr. The binding amount of the BRD4 protein and ligand was measured as fluorescence intensity (excitation: 340 nm/emission: 620 nm and excitation: 340 nm/emission: 670 nm).
It was calculated from the straight line connecting the degradation rate at two points enclosing the 50% fluorescence intensity and the compound concentration.

A word on the DC50: it is the concentration at which degradation of the target reaches its halfway point. A low value points to degradation at low concentration. Broadly, the IC50 is the concentration that gives 50% inhibition.

Structures are written as SMILES.

The molecule `COC(=O)C[C@@H]1N=C(c2ccc(N3CC[C@@H](Oc4ccc5oc(C(=O)N[C@H](C(=O)N6C[C@H](O)C[C@H]6C(=O)N[C@@H](C)c6ccc(-c7scnc7C)cc6)C(C)(C)C)cc5c4)C3)cc2)c2c(sc(C)c2C)-n2c(C)nnc21` [Example 142, methyl [(6S)-4-{4-[(3R)-3-{[2-({(2S)-1-[(2S,4R)-4-hydroxy-2-({(1S)-1-[4-(4-methyl-1,3-thiazol-5-yl)phenyl]ethyl}carbamoyl)pyrrolidin-1-yl]-3,3-dimethyl-1-oxobutan-2-yl}carbamoyl)-1-benzofuran-5-yl]oxy}pyrrolidin-1-yl]phenyl}-2,3,9-trimethyl-6H-thieno[3,2-f][1,2,4]triazolo[4,3-a][1,4]diazepin-6-yl]acetate] gave a DC50 on BRD4 protein of 0.72 nM. On BRD4-1 (GST), this molecule showed an IC50 of 110 nM.
For the molecule `COC(=O)C[C@@H]1N=C(c2ccc(-c3ccc(OCC(=O)N[C@H](C(=O)N4C[C@H](O)C[C@H]4C(=O)N[C@@H](C)c4ccc(-c5scnc5C)cc4)C(C)(C)C)c(C#N)c3)cc2)c2c(sc(C)c2C)-n2c(C)nnc21` [Example 9, methyl [(6S)-4-{3′-cyano-4′-[2-({(2S)-1-[(2S,4R)-4-hydroxy-2-({(1S)-1-[4-(4-methyl-1,3-thiazol-5-yl)phenyl]ethyl}carbamoyl)pyrrolidin-1-yl]-3,3-dimethyl-1-oxobutan-2-yl}amino)-2-oxoethoxy][1,1′-biphenyl]-4-yl}-2,3,9-trimethyl-6H-thieno[3,2-f][1,2,4]triazolo[4,3-a][1,4]diazepin-6-yl]acetate], on BRD4 bromodomain 1, the IC50 was determined as 47 nM. Also, half-maximal degradation on BRD4 protein (DC50) was put at 0.15 nM.
At BRD4 protein, `COC(=O)C[C@@H]1N=C(c2ccc(-c3ccc(C(=O)N[C@H](C(=O)N4C[C@H](O)C[C@H]4C(=O)N[C@@H](C)c4ccc(-c5scnc5C)cc4)C(C)(C)C)c(Cl)c3)cc2)c2c(sc(C)c2C)-n2c(C)nnc21` [Example 157, methyl {(6S)-4-[3′-chloro-4′-({(2S)-1-[(2S,4R)-4-hydroxy-2-({(1S)-1-[4-(4-methyl-1,3-thiazol-5-yl)phenyl]ethyl}carbamoyl)pyrrolidin-1-yl]-3,3-dimethyl-1-oxobutan-2-yl}carbamoyl)[1,1′-biphenyl]-4-yl]-2,3,9-trimethyl-6H-thieno[3,2-f][1,2,4]triazolo[4,3-a][1,4]diazepin-6-yl}acetate] came in with a DC50 of 0.38 nM. Moreover, the IC50 on BRD4-1 (GST) was determined as 61 nM.

The values are drawn from patent US11542273B2, “Amide compound having bet proteolysis-inducing action and medicinal application thereof” (MITSUBISHI TANABE PHARMA CORPORATION, priority 2018, dated 2023).
